Experimental data reported in patent US5223526A, “Pyrazole carboxanilide fungicides and use” (Monsanto Company, priority 1992, dated 1993).

Tests used:
succinate dehydrogenase = biological target: T1, succinate dehydrogenase (Botrytis cinerea, UniProt A0A384J5E4+A0A384J8V8+A0A384JHJ5); experiment: Enzyme inhibition: succinate dehydrogenase activity in Botrytis cinerea mitochondria (DCPIP reduction); type: biochemical; settings: concentration required to inhibit the rate of DCPIP reduction by 50%; Botrytis cinerea isolate Nick mitochondria; read-out: I50 (μM conc.)
T1 construct: succinate-DCPIP reductase assay with KCN
T1 sequence (A0A384J5E4 1-300): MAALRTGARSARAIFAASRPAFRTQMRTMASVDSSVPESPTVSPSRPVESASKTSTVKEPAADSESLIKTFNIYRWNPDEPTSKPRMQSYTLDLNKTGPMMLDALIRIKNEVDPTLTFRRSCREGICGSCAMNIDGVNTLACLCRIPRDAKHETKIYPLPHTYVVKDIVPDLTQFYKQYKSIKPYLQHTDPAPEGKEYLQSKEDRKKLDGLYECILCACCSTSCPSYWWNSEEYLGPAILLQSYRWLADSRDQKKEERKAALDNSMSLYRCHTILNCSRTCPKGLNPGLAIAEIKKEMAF
T1 sequence (A0A384J8V8 1-189): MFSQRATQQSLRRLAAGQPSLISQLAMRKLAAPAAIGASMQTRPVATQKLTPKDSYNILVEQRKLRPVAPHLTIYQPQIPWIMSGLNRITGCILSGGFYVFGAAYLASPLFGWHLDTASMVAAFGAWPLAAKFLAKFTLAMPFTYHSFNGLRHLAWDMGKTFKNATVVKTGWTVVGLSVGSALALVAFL
T1 sequence (A0A384JHJ5 1-192): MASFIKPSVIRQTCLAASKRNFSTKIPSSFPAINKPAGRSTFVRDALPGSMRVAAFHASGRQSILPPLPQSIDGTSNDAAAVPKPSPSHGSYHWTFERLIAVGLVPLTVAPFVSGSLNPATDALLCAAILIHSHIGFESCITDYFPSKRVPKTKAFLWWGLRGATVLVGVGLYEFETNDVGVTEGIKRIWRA
T1 sequence (A0A384K456 1-647 partner): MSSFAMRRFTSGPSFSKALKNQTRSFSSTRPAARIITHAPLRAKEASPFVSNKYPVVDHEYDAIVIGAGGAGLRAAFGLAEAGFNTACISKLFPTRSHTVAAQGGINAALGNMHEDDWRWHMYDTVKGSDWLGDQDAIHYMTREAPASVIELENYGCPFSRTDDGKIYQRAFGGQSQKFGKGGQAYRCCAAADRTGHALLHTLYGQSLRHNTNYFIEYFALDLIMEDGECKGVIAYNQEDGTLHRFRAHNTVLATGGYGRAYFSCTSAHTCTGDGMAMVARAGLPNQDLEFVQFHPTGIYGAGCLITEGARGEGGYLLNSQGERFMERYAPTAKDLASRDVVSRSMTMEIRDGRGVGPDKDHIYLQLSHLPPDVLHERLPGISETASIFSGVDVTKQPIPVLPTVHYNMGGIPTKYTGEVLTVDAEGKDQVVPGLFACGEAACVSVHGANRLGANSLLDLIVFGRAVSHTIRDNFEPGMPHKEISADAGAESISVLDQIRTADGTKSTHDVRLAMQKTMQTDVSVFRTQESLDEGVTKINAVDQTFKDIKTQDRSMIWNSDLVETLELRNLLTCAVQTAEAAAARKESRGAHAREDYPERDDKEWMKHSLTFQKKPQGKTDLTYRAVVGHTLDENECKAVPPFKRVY
How it was run: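 DCPIP (45 μM) reduction at 600 nm tracked with 17 mM succinate, 1 mM KCN and 50 mM potassium phosphate, pH 7.2. Compounds were added in acetone (final 1% v/v), and Botrytis cinerea isolate Nick mitochondrial fraction initiated the reaction. Rates minus endogenous activity gave percentage inhibition, plotted semilog against concentration to derive I50 (μM).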

Botrytis cinerea [1] = experiment: Eggplant grey mold; type: in vivo; parameters: scale not given here; settings: inoculated 24 h later, rated after 3-4 days; for Disease Control Rating at 20 ppm: eggplant sprayed with 20 ppm; for Disease Control Rating at 100 ppm: eggplant sprayed with 100 ppm; for Disease Control Rating at 500 ppm: eggplant sprayed with 500 ppm
How it was run: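 Protective test: compound formulations (2:3 acetone:water, 0.5% Tween 20; 500, 100 or 20 ppm) sprayed on 14-18-day-old plants, with spore inoculum (4×10^6 spore/mL) applied a day later. Disease control rated on Botrytis lesions after 3-4 days at 23 °C and 100% humidity.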

Botrytis cinerea [2] = experiment: Vine grey mold (grape berries); type: in vivo; settings: average of six berries, 7-10 days; for pest or weed control at 50 ppm: grape berries treated with 50 ppm, read-out: % DISEASE CONTROL 50 ppm; for pest or weed control at 200 ppm: grape berries treated with 200 ppm, read-out: % DISEASE CONTROL 200 ppm
How it was run: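 Preventive berry test: compound at 50 or 200 ppm (acetone/water, 0.05% Tween 20) applied one day before inoculation with 10^6 spores/mL Botrytis conidia. After 7-10 days at 20 °C under 12 h light, infected surface area rated; disease control expressed as percent reduction from control mean; repeated-test values averaged.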

Rhizoctonia solani = experiment: Rice sheath blight; type: in vivo; parameters: scale not given here; settings: inoculated two days later, rated after 7 days, average of five plants; for Disease Control Rating at 0.5 mg/mL: foliage and soil sprayed with 0.5 mg/mL; for Disease Control Rating at 0.02 mg/mL: foliage and soil sprayed with 0.02 mg/mL; for Disease Control Rating at 0.1 mg/mL: foliage and soil sprayed with 0.1 mg/mL
How it was run: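 Preventive test: R. solani inoculum on rice grain was applied at the plant base two days after spraying foliage and soil with Compound A (0.5, 0.1 or 0.02 mg/mL, water/acetone/Tween 20). Plants aged 11–15 days stood in flood trays; after 7 days at 25 °C and high humidity, disease control was rated against untreated plants, five plants averaged.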

Compound	IC50 (succinate dehydrogenase)	Disease Control Rating at 20 ppm (Botrytis cinerea [1])	Disease Control Rating at 100 ppm (Botrytis cinerea [1])	Disease Control Rating at 500 ppm (Botrytis cinerea [1])	pest or weed control at 50 ppm (Botrytis cinerea [2])	pest or weed control at 200 ppm (Botrytis cinerea [2])	Disease Control Rating at 0.5 mg/mL (Rhizoctonia solani)	Disease Control Rating at 0.02 mg/mL (Rhizoctonia solani)	Disease Control Rating at 0.1 mg/mL (Rhizoctonia solani)
Cn1cc(C(=O)Nc2ccccc2C2(C)CCCC2)c(C(F)(F)F)n1 [Example 67, 1H-pyrazole-4-carboxamide, 1-methyl-N-[2-(1-methylcyclopentyl)phenyl]-3-(trifluoromethyl)-]	0.056 µM	0	1	2	31%	0%	2		
Cn1cc(C(=O)Nc2ccccc2OC2CCCCC2)c(C(F)(F)F)n1 [Example 23, 1H-pyrazole-4-carboxamide, N-[2-(cyclohexyloxy)phenyl]-1-methyl-3-(trifluoromethyl)-]	0.01 µM			0	20%	66%	3	1	2
Cn1cc(C(=O)Nc2ccccc2SC2CCCCC2)c(C(F)F)n1 [Example 44, 1H-pyrazole-4-carboxamide, N-[2-(cyclohexylthio)phenyl]-3-(difluoromethyl)-1-methyl-]	0.052 µM			1	0%	37%	0		
Cc1nn(C)c(C)c1C(=O)Nc1ccccc1C1CCCCC1 [Example 30, 1H-pyrazole-4-carboxamide, N-(2-cyclohexylphenyl)-1,3,5-trimethyl-]	0.34 µM	0	2	2	75%	59%	3	2	3
Cn1nc(C(F)F)c(C(=O)Nc2ccccc2C2CCCCCC2)c1F [Example 115, 1H-pyrazole-4-carboxamide, N-(2-cycloheptylphenyl)-3-(difluoromethyl)-5-fluoro-1-methyl-]	0.0065 µM	1	2	3	42%	95%	3	3	3
CC1CC=C(c2ccccc2NC(=O)c2cn(C)nc2C(F)(F)F)C1 (stereo not shown) [Example 150, 1H-pyrazole-4-carboxamide, N-[2-(4-methyl-1-cyclopenten-1-yl)phenyl]-1-methyl-3-(trifluoromethyl)-]	0.026 µM	0	0	2	40%	100%	3		
Cn1nc(C(F)(F)F)c(C(=O)Nc2ccccc2C2CCCCCC2)c1Cl [Example 89, 1H-pyrazole-4-carboxamide, 5-chloro-N-(2-cycloheptylphenyl)-1-methyl-3-(trifluoromethyl)-]	0.021 µM			0	24%	13%	0		
Cn1cc(C(=O)Nc2ccccc2CC2CCCCC2)c(C(F)(F)F)n1 [Example 130, 1H-pyrazole-4-carboxamide, N-[2-(cyclohexylmethyl)phenyl]-1-methyl-3-(trifluoromethyl)-]	0.37 µM	0	0	0	2%	21%	2		
Cn1nc(C(F)(F)F)c(C(=O)Nc2ccccc2C2CCCCC2)c1F [Example 84, 1H-pyrazole-4-carboxamide, N-(2-cyclohexylphenyl)-5-fluoro-1-methyl-3-(trifluoromethyl)-]	0.013 µM	0	1	2	93%	96%	0		
Cn1cc(C(=O)Nc2ccccc2C2CCCCCC2)c(Br)n1 [Example 63, 1H-pyrazole-4-carboxamide, 3-bromo-N-(2-cycloheptylphenyl)-1-methyl-]	0.0063 µM			1	34%	65%	3	2	3
Cn1cc(C(=O)Nc2ccccc2C=C2CCCC2)c(C(F)F)n1 [Example 118, 1H-pyrazole-4-carboxamide, N-[2-(cyclopentylidenemethyl)phenyl]3-(difluoromethyl)-1-methyl-]	0.029 µM			0	37%	87%	1		
Cn1cc(C(=O)Nc2ccccc2C2CCCCCCC2)c(C(F)(F)F)n1 [Example 25, 1H-pyrazole-4-carboxamide, N-(2-cyclooctylphenyl)-1-methyl-3-(trifluoromethyl)-]	0.0011 µM	1	2	2	66%	78%	1		
Cn1cc(C(=O)Nc2ccccc2C2CCCC2)c(C(F)(F)F)n1 [Example 8, 1H-pyrazole-4-carboxamide, N-(2-cyclopentylphenyl)-1-methyl-3-(trifluoromethyl)-]	0.016 µM			0	37%	83%	0		
Cn1cc(C(=O)Nc2ccccc2C=C2CCCCC2)c(C(F)(F)F)n1 [Example 40, 1H-pyrazole-4-carboxamide, N-[2-(cyclohexylidenemethyl)phenyl]-1-methyl-3-(trifluoromethyl)-]	0.079 µM	0	0	1	2%	3%	0		
Cn1cc(C(=O)Nc2ccccc2C2=CCCCC2)c(C(F)F)n1 [Example 109, 1H-pyrazole-4-carboxamide, N-[2-(1-cyclohexen-1-yl)phenyl]-3-(difluoromethyl)-1-methyl-]	0.0072 µM			0	100%	100%	3	0	1
Cc1ccc(C2CCCCC2)c(NC(=O)c2cn(C)nc2C(F)(F)F)c1 [Example 18, 1H-pyrazole-4-carboxamide, N-(2-cyclohexyl-5-methylphenyl)-1-methyl-3-(trifluoromethyl)-]	0.031 µM			0	0%	0%	0		
